# Laboratory results reported in article PMC8955938, “c-Myc Protein Level Affected by Unsymmetrical Bisacridines Influences Apoptosis and Senescence Induced in HCT116 Colorectal and H460 Lung Cancer Cells” (International Journal of Molecular Sciences, 2022).
# Values joined by “and” are separate entries in the source; they are usually repeats but may differ in a detail not shown here. Equal entries are not always repeated.
# Key:
# Assay type in all cases: cell-based, human
# HCT116 cells [1] = assay: Cell cycle analysis (PI, flow cytometry), HCT116; conditions: HCT116, IC90 doses; for cells with more than 4N DNA (polyploid): during the time of incubation (time not specified), control 10%; for cells in G2/M (4N DNA): during the treatment after accumulation at 24 h (time not specified)
# Protocol: After drug treatment, trypsinized and floating cells (2 × 10^6) were pooled, washed twice with ice-cold PBS and fixed in 70% (v/v) ethanol overnight at −20 °C. Cells were stained with propidium iodide (PI) (BD Biosciences, San Jose, CA, USA) and monitored by FACS Accuri C6 (BD Biosciences, San Jose, CA, USA).
# HCT116 cells [2] = assay: MTT cell growth inhibition assay, HCT116; conditions: HCT116, 72 h
# Protocol: (§1) To assess cell viability, the MTT assay was used. HCT116, H460, CCD 841 CoN and MRC-5 cells (20,000/well and 50,000/well for cancer and normal cells, respectively) were seeded in 24-well plates, and the following UAs were added at concentrations up to 10 μM: C-2028, C-2041, C-2045 and C-2053. Stock solutions (10 mM) were prepared in sterile water, as well as dilutions, also in water. After 72 h, 3-(4, 5-dimethylthiazol-2-yl)-2,5-diphenyltetrazolium bromide (MTT; 800 μg/well) was added for 3 h, then the formazan crystals were dissolved in DMSO, and absorbance was read at 540 nm. Each point was conducted at least 4 times, and data are expressed relative to controls. The concentration of the drug required to inhibit cells growth by 50 (IC50), 80 (IC80) and 90% (IC90) compared to untreated control cells was determined from the curves plotting survival as a function of dose.
# H460 cells = assay: Annexin V/PI dual staining, H460; conditions: H460, IC90 doses; for necrotic cells (stained only with PI): during the incubation time
# Protocol: (§2) Annexin V–FITC binding was performed with an Annexin-V Fluos Staining kit (BD Biosciences, San Jose, CA, USA) according to manufacturer’s protocol. Briefly, after drug treatment, HCT116 and H460 cells (1 × 10^6) were trypsinized, washed twice with ice-cold PBS, pelleted and resuspended in 100 µL of binding buffer containing Annexin-V–FITC and PI. Cells were incubated for 15 min at room temperature in the dark, then diluted with 400 µL of binding buffer and analyzed by flow cytometry with FACS Accuri C6 (BD, San Jose, CA, USA). Cells with low FITC and PI fluorescence were considered viable. Cells that presented high FITC fluorescence but low PI fluorescence were regarded as early apoptotic. Late apoptotic cells presented high FITC and PI fluorescence. Necrotic cells had low FITC fluorescence and high PI fluorescence.
# HCT116 cells [3] = assay: Colony-forming assay, HCT116; conditions: for number of colonies: HCT116, 120 h treatment at IC90 doses, about 250 cells cultured two weeks in fresh medium; for return to proliferation (colony formation): HCT116, IC90 doses, already after 24 h of incubation
# Protocol: The ability of cells to return to proliferation after UAs treatment was measured by a colony-forming assay. After drug treatment, 250 HCT116 and H460 cells were harvested and seeded in a new 6-well plate containing fresh medium without the drug and incubated for two weeks. Untreated cells were used as controls. After two weeks, colonies were fixed with 80% ethanol, stained with crystal violet, counted, and photos were taken.
# HCT116 cells [4] = assay: Annexin V/PI dual staining, HCT116; conditions: HCT116, IC90 doses, 120 h
# Protocol: as §2
# HCT116 cells [5] = assay: Mitochondrial transmembrane potential (JC-1), HCT116; conditions: HCT116, IC90 doses, 120 h
# Protocol: Changes in the mitochondrial membrane potential (ΔΨm) were analyzed by flow cytometry using 5,5′,6,6′-tetrachloro-1,1′,3,3′-tetraethylbenzimidazolyl-carbocyanine iodide, JC-1 (BD Biosciences, San Jose, CA, USA) according to manufacturer’s specification. Briefly, after treatment, HCT116 and H460 cells (1 × 10^6) were trypsinized, pelleted, resuspended in media and stained with JC-1 for 15 min at 37 °C. After staining, cells were washed twice with assay buffer and analyzed by flow cytometry with FACS Accuri C6 (BD, San Jose, CA, USA). The loss of ΔΨm was monitored based on the decrease in JC-1 red fluorescence concurrent with the increase in green fluorescence.
# CCD 841 CoN cells = assay: MTT cell growth inhibition assay, CCD 841 CoN; conditions: CCD 841 CoN normal cells, 72 h
# Protocol: as §1
# HCT116 cells [6] = assay: Nuclear morphology (Hoechst 33342), HCT116; conditions: HCT116, IC90 doses
# Protocol: Nuclear morphology was examined under a fluorescence microscope (OLYMPUS BX60, […]) after staining with Hoechst 33342. Briefly, after drug treatment, HCT116, H460, CCD 841 CoN and MRC-5 cells were spun onto microscopic slides, fixed with methanol:acetic acid (3:1) for 15 min and stained with Hoechst 33342 (1 mg/mL) for 15 min. Cells were regarded as apoptotic based on the presence of condensed, fragmented chromatin. Enlarged cells containing multiple nuclei were considered as typical of mitotic catastrophe.
Compound,Poli (polyploid cells) (HCT116 cells [1]; 24 h) [%],cells in G1 (HCT116 cells [1]; 24 h),cells in G2/M (HCT116 cells [1]; 24 h) [%],cells in S (HCT116 cells [1]; 24 h),cells in Sub-G1 (HCT116 cells [1]; 24 h) [%],Poli (polyploid cells) (HCT116 cells [1]; 72 h) [%],cells in G1 (HCT116 cells [1]; 72 h) [%],cells in G2/M (HCT116 cells [1]; 72 h) [%],cells in S (HCT116 cells [1]; 72 h) [%],cells in Sub-G1 (HCT116 cells [1]; 72 h) [%],Poli (polyploid cells) (HCT116 cells [1]; 120 h) [%],cells in G1 (HCT116 cells [1]; 120 h),cells in G2/M (HCT116 cells [1]; 120 h) [%],cells in S (HCT116 cells [1]; 120 h) [%],cells with more than 4N DNA (polyploid) (HCT116 cells [1]),"IC50 (HCT116 cells [2]; Homo sapiens, HCT-116, 72 h) [nM]","IC90 (HCT116 cells [2]; Homo sapiens, HCT-116, 72 h) [nM]",annexin V positive cells (early and late apoptotic) (H460 cells; 120 h) [%],annexin V positive cells (early and late apoptotic) (HCT116 cells [4]),cells with decreased mitochondrial transmembrane potential (ΔΨm) (HCT116 cells [5]),other results
CN(CCCNc1c2ccccc2nc2cccc([N+](=O)[O-])c12)CCCNc1ccc2ncn3c4ccccc4c(=O)c1c23 [Compound C-2028],5.73 ± 0.93,24.89 ± 3.90%,45.89 ± 3.13,19.33 ± 1.58%,3.37 ± 0.69,5.11 ± 1.54,28.63 ± 5.96,21.02 ± 4.86,7.67 ± 2.54,36.97 ± 8.93,5.73 ±2.33,25.39 ± 3.25%,26.26 ± 4.90,4.95 ± 1.90,5%,≤ 16,≤ 50,48.7,26.1%,34.3% and 30%,"cells in Sub-G1 (HCT116 cells [1]; 120 h): 37.46 ± 9.35% and 37.5% and 30%; cells in G2/M (4N DNA) (HCT116 cells [1]): ~23%; IC50 (HCT116 cells [2]): 10 ± 1 nM; IC90 (HCT116 cells [2]): 44 ± 5 nM; necrotic cells (stained only with PI) (H460 cells): ≤ 10%; number of colonies (HCT116 cells [3]): one; IC50 (CCD 841 CoN cells): 25 ± 7 nM; IC90 (CCD 841 CoN cells; Homo sapiens): 3690 ± 1080 nM; IC50 (CCD 841 CoN cells; Homo sapiens, CCD-841CoN): ~20 nM"
O=c1c2ccccc2n2cnc3ccc(NCCCN4CCN(CCCNc5c6ccccc6nc6cccc([N+](=O)[O-])c56)CC4)c1c32 [Compound C-2041],4.22 ± 2.00,28.75 ± 3.88% and 29%,29.92 ± 4.56,25.97 ± 2.80% and 26%,11.81 ± 1.94,4.47 ± 2.13,22.16 ± 5.06,14.29 ± 1.52,9.59 ± 2.24,48.83 ± 7.71,4.64 ± 2.56,13.63 ± 3.71% and 13.6%,9.44 ± 3.88,3.25 ± 1.05,5%,≤ 16,≤ 50,35.9,approximately 43%,around 70%,"apoptotic cells (nuclear morphology) (HCT116 cells [6]; 72 h): 29.4%; IC50 (HCT116 cells [2]): 8 ± 2 nM; IC90 (HCT116 cells [2]): 49 ± 5 nM; necrotic cells (stained only with PI) (H460 cells): ≤ 10%; number of colonies (HCT116 cells [3]): 7 colonies; cells with decreased mitochondrial transmembrane potential (ΔΨm) (HCT116 cells [5]; listed as C-1041): 63.0%; IC90 (CCD 841 CoN cells; Homo sapiens): 5120 ± 1090 nM; IC50 (CCD 841 CoN cells; Homo sapiens, CCD-841CoN): 36 ± 5 nM"
Cc1ccc([N+](=O)[O-])c2c(NCCCN(C)CCCNc3ccc4ncn5c6ccc(O)cc6c(=O)c3c45)c3ccccc3nc12 [Compound C-2045],4.91 ± 2.33,24.61 ± 2.63%,50.18 ± 2.39,16.33 ± 1.34%,3.90 ± 0.83,12.20 ± 1.85,28.51 ± 4.31,34.06 ± 3.35,6.15 ± 0.70,17.38 ± 4.00,15.17 ± 3.74,22.11 ± 2.54%,22.94 ± 2.48,4.56 ± 1.19,around 15%,59 ± 8,455 ± 26,49.4,~27.8%,30.9% and 30%,"cells in Sub-G1 (HCT116 cells [1]; 120 h): 35.40 ± 5.84% and 35.4% and 30%; cells in G2/M (4N DNA) (HCT116 cells [1]): ~23%; apoptotic cells (nuclear morphology) (HCT116 cells [6]; 72 h): 20.6%; necrotic cells (A−PI+) (H460 cells; 120 h): ~12%; return to proliferation (colony formation) (HCT116 cells [3]): completely blocked their return to proliferation; IC50 (CCD 841 CoN cells): 338 ± 27 nM; IC90 (CCD 841 CoN cells; Homo sapiens): 5340 ± 1850 nM; IC50 (CCD 841 CoN cells; Homo sapiens, CCD-841CoN): ~300 nM"
Cc1ccc([N+](=O)[O-])c2c(NCCCN(C)CCCNc3ccc4ncn5c6ccccc6c(=O)c3c45)c3ccccc3nc12 [Compound C-2053],8.89 ± 1.38,22.34 ± 2.79%,44.81 ± 7.10,19.19 ± 1.77%,3.06 ± 1.09,11.02 ± 2.20,35.18 ± 2.63,36.32 ± 3.14,5.43 ± 1.59,10.45 ± 2.56,14.62 ± 4.62,30.06 ± 4.35%,27.20 ± 4.16,4.10 ± 0.56,around 15%,48 ± 14,195 ± 75,53.1,18.4%,23.5%,"cells in Sub-G1 (HCT116 cells [1]; 120 h): 23.64 ± 4.86% and 23.6%; cells in G2/M (4N DNA) (HCT116 cells [1]): ~23%; apoptotic cells (nuclear morphology) (HCT116 cells [6]; 72 and 120 h): up to 6.4%; necrotic cells (stained only with PI) (H460 cells): ≤ 10%; return to proliferation (colony formation) (HCT116 cells [3]): completely blocked their return to proliferation; IC90 (CCD 841 CoN cells; Homo sapiens): 4100 ± 470 nM; IC50 (CCD 841 CoN cells; Homo sapiens, CCD-841CoN): 240 ± 40 nM"
